Where two headings read alike, the source gives them in different places.
Legend:
HCC827 cells [1] = system: HCC827 cells
Method: All culture media were supplemented with FBS (10 %) and P/S (1 %), and the cells were grown at 37 °C in 5 % CO2.
The cells were treated with MTT and incubated for 2 h. The supernatants were removed, and the remaining formazan crystals were dissolved in DMSO before absorbance measurement at 570 nm using a Multiscan GO spectrophotometer (Thermo Fisher Scientific, Vantaa, Finland).

HCC827 cells [2] = assay: Multi-caspase assay, HCC827; format: cell-based, human; set-up: Caspase+ cells / Total Caspase+ cells / dead cells (multi-caspase assay) / Live cells (multi-caspase assay): unit not given here; conditions: for cells with activated caspases: 48 h, background 6.52 %
Method: (§1) HaCaT cells were grown in DMEM, whereas HCC827 and HCC827GR cells were grown in RPMI 1640. All culture media were supplemented with FBS (10 %) and P/S (1 %), and the cells were grown at 37 °C in 5 % CO2.

p-EGFR (Y1068) = assay: Western blot p-EGFR (Y1068) in HCC827 and HCC827GR cells; format: cell-based, human; conditions: DBG 3, 6, 12 nM, 48 h
Method: as §1
(§2) Cells were lysed in RIPA buffer, and protein concentration was determined using a Bio-Rad DC Protein Assay kit (Bio-Rad, Hercules, CA, USA). Protein samples from the cell lysates were resolved by sodium dodecyl sulfate-polyacrylamide gel electrophoresis and then transferred onto polyvinylidene fluoride membranes. The membranes were blocked with 3 % or 5 % skim milk and then incubated at 4 °C overnight with the indicated primary antibodies, followed by the corresponding horseradish peroxidase-conjugated secondary antibodies at RT for 2 h. Protein bands were visualized using western blotting luminol reagent solution and ImageQuant LAS 500 (GE Healthcare, Uppsala, Sweden). The density of the bands was quantified using ImageJ software (NIH, Bethesda, MD, USA).

caspase-3 = assay: Immunoblot caspase-3 with NAC pretreatment, HCC827 and HCC827GR cells; format: cell-based, human; conditions: for caspase3 protein Ratio: control = 1.00
Method: as §1, §2

[3] = HCC827, DBG 3 nM, mean of samples 1-3
[4] = HCC827, DBG 6 nM, mean of samples 1-3
[5] = HCC827, DBG 12 nM, mean of samples 1-3

With `COc1ccc(C[C@H]2C(=O)N[C@@H](C)C(=O)N(C)[C@H]3Cc4ccc(cc4)Oc4cc(ccc4O[C@@H]4O[C@H](CO)[C@@H](O)[C@H](O)[C@H]4O)C[C@@H](C(=O)N[C@H](C)C(=O)N[C@@H](C)C(=O)N2C)N(C)C3=O)cc1` [DBG, deoxybouvardin glucoside] the cell viability (HCC827 cells [1]; 24 h, DBG 3 nM, replicate 1) was 86.91%, the cell viability (HCC827 cells [1]; 24 h, DBG 3 nM, replicate 2) was 83.02% and the cell viability (HCC827 cells [1]; 24 h, DBG 3 nM, replicate 3) was 81.91%. The cell viability (HCC827 cells [1]; 24 h, DBG 6 nM, replicate 1) was 73.81%, the cell viability (HCC827 cells [1]; 24 h, DBG 6 nM, replicate 2) was 74.94% and the cell viability (HCC827 cells [1]; 24 h, DBG 6 nM, replicate 3) was 75.18%. For the same compound, the cell viability (HCC827 cells [1]; 24 h, DBG 12 nM, replicate 1) was 63.61%, the cell viability (HCC827 cells [1]; 24 h, DBG 12 nM, replicate 2) was 64.36% and the cell viability (HCC827 cells [1]; 24 h, DBG 12 nM, replicate 3) was 66.17%. For the same compound, the IC50 (HCC827 cells [1]; 48 h) was 8.6 nM, the cell viability (HCC827 cells [1]; 48 h, DBG 3 nM, replicate 1) was 82.82% and the cell viability (HCC827 cells [1]; 48 h, DBG 3 nM, replicate 2) was 81.25%. For the same compound, the cell viability (HCC827 cells [1]; 48 h, DBG 3 nM, replicate 3) was 79.60%, the cell viability (HCC827 cells [1]; 48 h, DBG 6 nM, replicate 1) was 60.78% and the cell viability (HCC827 cells [1]; 48 h, DBG 6 nM, replicate 2) was 58.53%. It also gave a cell viability (HCC827 cells [1]; 48 h, DBG 6 nM, replicate 3) of 60.97%, a cell viability (HCC827 cells [1]; 48 h, DBG 12 nM, replicate 1) of 37.02% and a cell viability (HCC827 cells [1]; 48 h, DBG 12 nM, replicate 2) of 36.88%. For the same compound, the cell viability (HCC827 cells [1]; 48 h, DBG 12 nM, replicate 3) was 36.42%, the “viability, in words” value (HCC827 cells [1]; DBG 3, 6, 12 nM) was “suppressed the viability” and the “cells with activated caspases” value (HCC827 cells [2]; DBG 3 nM) was 16.23%. For the same compound, the “cells with activated caspases” value (HCC827 cells [2]; DBG 6 nM) was 24.10%, the “cells with activated caspases” value (HCC827 cells [2]; DBG 12 nM) was 25.94% and the “Caspase+ cells” value (HCC827 cells [2]; [3]) was 4.43. The “Caspase+/dead cells” value (HCC827 cells [2]; [3]) was 11.80, the “Live cells (multi-caspase assay)” value (HCC827 cells [2]; [3]) was 83.72 and the “Total Caspase+ cells” value (HCC827 cells [2]; [3]) was 16.23. The “dead cells (multi-caspase assay)” value (HCC827 cells [2]; [3]) was 0.05, the “Caspase+ cells” value (HCC827 cells [2]; HCC827, DBG 3 nM, sample 1) was 5.19 and the “Caspase+/dead cells” value (HCC827 cells [2]; HCC827, DBG 3 nM, sample 1) was 10.83. The “Live cells (multi-caspase assay)” value (HCC827 cells [2]; HCC827, DBG 3 nM, sample 1) was 83.88, the “Total Caspase+ cells” value (HCC827 cells [2]; HCC827, DBG 3 nM, sample 1) was 16.02 and the “dead cells (multi-caspase assay)” value (HCC827 cells [2]; HCC827, DBG 3 nM, sample 1) was 0.10. For the same compound, the “Caspase+ cells” value (HCC827 cells [2]; HCC827, DBG 3 nM, sample 2) was 3.91, the “Caspase+/dead cells” value (HCC827 cells [2]; HCC827, DBG 3 nM, sample 2) was 12.71 and the “Live cells (multi-caspase assay)” value (HCC827 cells [2]; HCC827, DBG 3 nM, sample 2) was 83.38. For the same compound, the “Total Caspase+ cells” value (HCC827 cells [2]; HCC827, DBG 3 nM, sample 2) was 16.62, the “dead cells (multi-caspase assay)” value (HCC827 cells [2]; HCC827, DBG 3 nM, sample 2) was 0.00 and the “Caspase+ cells” value (HCC827 cells [2]; HCC827, DBG 3 nM, sample 3) was 4.20. For the same compound, the “Caspase+/dead cells” value (HCC827 cells [2]; HCC827, DBG 3 nM, sample 3) was 11.85, the “Live cells (multi-caspase assay)” value (HCC827 cells [2]; HCC827, DBG 3 nM, sample 3) was 83.89 and the “Total Caspase+ cells” value (HCC827 cells [2]; HCC827, DBG 3 nM, sample 3) was 16.06. For the same compound, the “dead cells (multi-caspase assay)” value (HCC827 cells [2]; HCC827, DBG 3 nM, sample 3) was 0.05, the “Caspase+ cells” value (HCC827 cells [2]; [4]) was 9.84 and the “Caspase+/dead cells” value (HCC827 cells [2]; [4]) was 14.26. For the same compound, the “Live cells (multi-caspase assay)” value (HCC827 cells [2]; [4]) was 75.85, the “Total Caspase+ cells” value (HCC827 cells [2]; [4]) was 24.10 and the “dead cells (multi-caspase assay)” value (HCC827 cells [2]; [4]) was 0.00. For the same compound, the “Caspase+ cells” value (HCC827 cells [2]; HCC827, DBG 6 nM, sample 1) was 10.64, the “Caspase+/dead cells” value (HCC827 cells [2]; HCC827, DBG 6 nM, sample 1) was 13.33 and the “Live cells (multi-caspase assay)” value (HCC827 cells [2]; HCC827, DBG 6 nM, sample 1) was 76.03. The “Total Caspase+ cells” value (HCC827 cells [2]; HCC827, DBG 6 nM, sample 1) was 23.97, the “dead cells (multi-caspase assay)” value (HCC827 cells [2]; HCC827, DBG 6 nM, sample 1) was 0.00 and the “Caspase+ cells” value (HCC827 cells [2]; HCC827, DBG 6 nM, sample 2) was 9.67. For the same compound, the “Caspase+/dead cells” value (HCC827 cells [2]; HCC827, DBG 6 nM, sample 2) was 14.53, the “Live cells (multi-caspase assay)” value (HCC827 cells [2]; HCC827, DBG 6 nM, sample 2) was 75.65 and the “Total Caspase+ cells” value (HCC827 cells [2]; HCC827, DBG 6 nM, sample 2) was 24.20. For the same compound, the “dead cells (multi-caspase assay)” value (HCC827 cells [2]; HCC827, DBG 6 nM, sample 2) was 0.00, the “Caspase+ cells” value (HCC827 cells [2]; HCC827, DBG 6 nM, sample 3) was 9.21 and the “Caspase+/dead cells” value (HCC827 cells [2]; HCC827, DBG 6 nM, sample 3) was 14.92. For the same compound, the “Live cells (multi-caspase assay)” value (HCC827 cells [2]; HCC827, DBG 6 nM, sample 3) was 75.87, the “Total Caspase+ cells” value (HCC827 cells [2]; HCC827, DBG 6 nM, sample 3) was 24.13 and the “dead cells (multi-caspase assay)” value (HCC827 cells [2]; HCC827, DBG 6 nM, sample 3) was 0.00. For the same compound, the “Caspase+ cells” value (HCC827 cells [2]; [5]) was 16.76, the “Caspase+/dead cells” value (HCC827 cells [2]; [5]) was 9.18 and the “Live cells (multi-caspase assay)” value (HCC827 cells [2]; [5]) was 73.91. For the same compound, the “Total Caspase+ cells” value (HCC827 cells [2]; [5]) was 25.94, the “dead cells (multi-caspase assay)” value (HCC827 cells [2]; [5]) was 0.08 and the “Caspase+ cells” value (HCC827 cells [2]; HCC827, DBG 12 nM, sample 1) was 17.38. For the same compound, the “Caspase+/dead cells” value (HCC827 cells [2]; HCC827, DBG 12 nM, sample 1) was 9.37, the “Live cells (multi-caspase assay)” value (HCC827 cells [2]; HCC827, DBG 12 nM, sample 1) was 73.00 and the “Total Caspase+ cells” value (HCC827 cells [2]; HCC827, DBG 12 nM, sample 1) was 26.75. The “dead cells (multi-caspase assay)” value (HCC827 cells [2]; HCC827, DBG 12 nM, sample 1) was 0.05, the “Caspase+ cells” value (HCC827 cells [2]; HCC827, DBG 12 nM, sample 2) was 16.62 and the “Caspase+/dead cells” value (HCC827 cells [2]; HCC827, DBG 12 nM, sample 2) was 9.35. The “Live cells (multi-caspase assay)” value (HCC827 cells [2]; HCC827, DBG 12 nM, sample 2) was 73.88, the “Total Caspase+ cells” value (HCC827 cells [2]; HCC827, DBG 12 nM, sample 2) was 25.97 and the “dead cells (multi-caspase assay)” value (HCC827 cells [2]; HCC827, DBG 12 nM, sample 2) was 0.15. The “Caspase+ cells” value (HCC827 cells [2]; HCC827, DBG 12 nM, sample 3) was 16.27, the “Caspase+/dead cells” value (HCC827 cells [2]; HCC827, DBG 12 nM, sample 3) was 8.82 and the “Live cells (multi-caspase assay)” value (HCC827 cells [2]; HCC827, DBG 12 nM, sample 3) was 74.86. The “Total Caspase+ cells” value (HCC827 cells [2]; HCC827, DBG 12 nM, sample 3) was 25.09, the “dead cells (multi-caspase assay)” value (HCC827 cells [2]; HCC827, DBG 12 nM, sample 3) was 0.05 and the “phosphorylation level of EGFR” value (p-EGFR (Y1068)) was “decreased”. The caspase3 protein/actin (caspase-3; HCC827, DBG 12 nM, control 0.39) was 0.07, the “caspase3 protein Ratio” value (caspase-3; HCC827, DBG 12 nM) was 0.18 and the caspase3 protein/actin (caspase-3; HCC827, NAC 4 mM + DBG 12 nM, control 0.39) was 0.60. For the same compound, the “caspase3 protein Ratio” value (caspase-3; HCC827, NAC 4 mM + DBG 12 nM) was 1.53, the caspase3 protein/actin (caspase-3; HCC827GR, DBG 12 nM, control 0.59) was 0.24 and the “caspase3 protein Ratio” value (caspase-3; HCC827GR, DBG 12 nM) was 0.41. The caspase3 protein/actin (caspase-3; HCC827GR, NAC 4 mM + DBG 12 nM, control 0.59) was 0.45 and the “caspase3 protein Ratio” value (caspase-3; HCC827GR, NAC 4 mM + DBG 12 nM) was 0.77.
